Here are results for two sequences from patent US11851459B2, “Methods and uses of modulators of anaphase promoting complex (APC) activity for treating cancer” (University of Saskatchewan, priority 2018, dated 2023).

One assay concerns apc10Δ cells. Put plainly: apc10Δ temperature sensitive growth, spot dilutions. Format: cell-based, yeast. The note with it: 30 and 34° C., weakly expressed on glucose. An excerpt: A. Yeast 2-hybrid (Y2H) cells expressing the APC subunit bait and the galactose inducible Apc10 peptide prey grown on glucose or galactose. Cells co-expressing the Apc5 or Apc10-bait and Apc10 aptamer-prey vectors were spotted onto the appropriate media, in the presence or absence of galactose (the aptamers are Gal inducible), to confirm Y2H interactions. Growth on trp^− his^− media ensures both plasmids are maintained. A Y2H interaction will drive expression of the ADE2 gene, allowing growth on ade^− media. B. Aptamers that bind Apc10 can suppress APC mutant phenotypes. Spot dilutions of apc10Δ cells expressing an empty vector control or the one of 6 Apc10 aptamers tested. Log phase cells were 10-fold serially diluted and spotted onto plates containing either 2% glucose or 2% galactose. The plates were then incubated at 30° C. (permissive temperature) and 34° C. (restrictive stress). C. Peptides identified as binding to the yeast Apc10 APC subunit using the Y2H screen increase growth of wildtype (WT) cells. […]
The six peptide expressing vectors were transformed into apc10Δ cells and assessed for temperature sensitive growth. […]
Over 100 peptides that bound either Apc5 or Apc10 were recovered from millions screened. […] Vectors expressing these 6 peptides were transformed into WT or APC mutant cells and assessed for ts growth.

Assay [1] concerns APC (substrates Cyclin B, Securin, Cdc20, HURP). Put plainly: APC substrate westerns in MDA-MB-231 cells expressing peptides. The class given is cell-based, human. How it is done: A. Transient transfection of the C43-4 peptide plasmid into human triple negative MDA-MB-231 breast cancer cells followed by Western blot analysis of lysates against Cyclin B, Securin and Cdc20 showing enhanced protein loss. B. Cells in A were treated with DOX (1 uM) for 48 hrs with cell viability measured using an MTT assay kit. The experiment was done in triplicate with standard error of the means shown.
A. Stable integration of C43-4 in MDA-MB-231 cells was established by selection of transfected cells on Geneticin for 7 days. Westerns against APC substrates show APC activation. B. Cells in A were treated with DOX (1 uM) for 48 hrs with cell viability measured using an MTT assay kit. Mean and SEM of 3 biological repeats.
A. TNBC MDA-MB-231 cells stably expressing APC binding peptides activate the APC. Cells were grown to confluence and then used to prepare protein lysates. The lysates were used to measure levels of the APC substrate CDC20, which will be reduced if the APC is activated. Cells stably expressing the pcDNA empty vector were used as a control. B. In a similar experiment, MDA-MB-231 cells stably expressing the APC binding peptides shown, or the empty vector control, were used to measure protein levels of the APC substrate HURP using Westerns. C. Triplicate blots as in B were scanned, normalized to tubulin and plotted. Error of the mean is shown. Significant changes are indicated. D. MDA-MB-231 cells stably expressing the empty pcDNA vector, or the C43-4 and C13-3 APC binding peptides, were treated with 1 μM Doxorubicin for 24 hrs. Cell viability was measured using an MTT viability assay.
The C43-4 peptide sequence was cloned into the human expression vector pcDNA. This construct was transiently, and stably, expressed in human breast cancer cell line MDA-MB-231. […] In 231 cells, which are triple negative, aggressive and somewhat resistant to Doxorubicin, the transiently and stably transfected C43-4 peptide resensitized them to DOX treatment (FIGS. 22B and 23B).
In FIG. 26B, MDA-MB-231 cells were also stably transfected with the peptides C1-8, C2-4B, C3-1B, and C9-5. Levels of the APC substrate HURP were measured in lysates prepared from these cells. […] The empty vector pcDNA was also stably expressed in 231 cells and used as a control.

Another assay has as its target T1, Apc10 (Saccharomyces cerevisiae, UniProt P53068).
T1 construct: expressed in transfected cells; host or cells: yeast Y2H cells
T1 sequence (P53068 1-250): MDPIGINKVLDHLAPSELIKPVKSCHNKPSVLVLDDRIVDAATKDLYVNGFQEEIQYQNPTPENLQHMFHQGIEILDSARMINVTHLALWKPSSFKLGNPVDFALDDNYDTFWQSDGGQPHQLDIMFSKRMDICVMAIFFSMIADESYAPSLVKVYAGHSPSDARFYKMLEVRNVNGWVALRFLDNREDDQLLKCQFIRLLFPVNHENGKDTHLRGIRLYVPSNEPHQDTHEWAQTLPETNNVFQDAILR
Put plainly: Yeast 2-hybrid (Y2H) assay, Apc10 bait. The class given is binding. Here is the method:
The reverse genetic screen utilized a yeast 2-hybrid (Y2H) protocol that selected for peptides that bound to the APC subunits Apc5 or Apc10 (see FIG. 8 for APC structure), to assess whether peptide-binding might modify APC function. Peptides that bound APC subunits were then assayed for those that suppressed APC mutant defects.
A library of random small peptides were cloned into a Thioredoxin (Trx) scaffold (see FIG. 9 for Trx-peptide structure) and expressed from a galactose-inducible Y2H prey vector in cells expressing the Apc10 bait vector (the modified Apc10 is still part of the complete APC complex). Six peptides that reproducibly interacted with the Apc10 bait construct in Y2H assays were identified (FIG. 1A) and were examined further. Cells will only grow in this assay if the peptide interacts with Apc5 or Apc10.
To identify peptides that bound to either Apc5 or Apc10 proteins using a yeast 2-hybrid (Y2H) screen, random small peptides were cloned into the TrxA scaffold (library provided by R. Geyer; FIG. 9) and expressed from a galactose-inducible Y2H prey vector in cells harboring either the APC5 or APC10 genes cloned into the Y2H bait vectors (APC5/APC10 bait constructs complement APC mutant defects).
Over 100 peptides that bound either Apc5 or Apc10 were recovered from millions screened. Six peptides that reproducibly interacted with the Apc5 or Apc10 bait construct in Y2H assays were examined further. Vectors expressing these 6 peptides were transformed into WT or APC mutant cells and assessed for ts growth.

In a further assay the test system is WT cells. Put plainly: Stationary phase WT cells spot diluted (chronological lifespan / stress resistance). Conditions: FIG. 2B; for stress resistance: WT cells grown to stationary phase, spot diluted; for chronological lifespan: WT cells. The class given is cell-based, yeast. Here is the method:
A. apc5^CA (temperature sensitive allele) cells were transformed with C43-4 or an empty vector. Cells grown overnight in 2% Glu were struck onto 2% Glucose plates and used for the yeast RLS assay. From the top left hand corner of the figures, top line is WT +empty vector, middle line is apc5^CA+C43-4 peptide and bottom line is apc5^CA+empty vector. B. WT cells transformed with C43-4, C2-4B or an empty vector were grown to stationary phase in 2% Glu media, then after 2 days spot diluted onto 2% Glu or 2% Gal to induce expression of the peptides.

Where [2] appears, read: transiently transfected MDA-MB-231.

NGSSHNDLRVRRLTLISRLC [C43-4]: the apc10Δ growth phenotype result in the assay with apc10Δ cells is recorded as “suppressed the apc10Δ growth phenotype”. In addition, the “levels of the APC substrate CDC20” value in assay [1] (MDA-MB-231 stably expressing peptides) was “reduce levels”. For the same sequence, the “protein levels of CyclinB” value in assay [1] (stably transfected MDA-MB-231) is reported as “reduced protein levels”. Besides, in assay [1] (setting [2]), the “APC substrate Cdc20” value is on record as “reduced”, the “APC substrate Cyclin B” value is listed as “reduced” and the “APC substrate Securin” value is reported as “reduced”. Also, the “binds Apc10 in a yeast 2 hybrid assay” value in the assay with Apc10 was “Binds Apc10”. In addition, in the assay on WT cells, the stress resistance entry is “increase stress resistance” and the chronological lifespan result is “improved chronological lifespan”.

With RMPQWWQWMWV [C2-4B], in the assay with apc10Δ cells, the apc10Δ growth phenotype result is on record as “suppressed the apc10Δ growth phenotype”. Besides, in assay [1] (MDA-MB-231 stably transfected, normalized to tubulin), the “levels of the APC substrate HURP” value is recorded as “Only C1-8 did not reduce HURP levels”. Also, the “binds Apc10 in a yeast 2 hybrid assay” value with Apc10 was “Binds Apc10”. Moreover, in the assay with WT cells, the stress resistance result was “increase stress resistance” and the chronological lifespan result is “improved chronological lifespan”.
